According to patent US7144901B2, “Oxadiazole derivatives and drugs containing these derivatives as the active ingredient” (ONO Pharmaceutical Co.,Ltd., priority 1999, dated 2006):
One block for each molecule: values may come before it.

Columns and labels:
Format in all cases: biochemical
cathepsin L = cathepsin L (Homo sapiens, UniProt P07711); experiment: Measurement of cathepsin L inhibitory activity
Method: (iv) Measurement of Cathepsin L Inhibitory Activity
5 μL of Synthesized substrate (carbobenzoxy-L-phenylalanyl-L-arguine-4-methyl-chromanyl-7-amide or L-prolyl-L-phenylalanyl-L-arguinine-4-methyl-chromanyl-7-amide) solution and 5 μL of cysteine protease inhibitor solution of several concentrations, 80 μL of cathepsin L enzyme reaction buffer (400 mmol/L acetic acid, 4 mmol/L EDTA, 8 mmol/L DTT were mixed to adjust to pH 5.5) and 10 μL of cathepsin L enzyme solution were mixed and the increase of fluorescence intensity was measured (λex (excitation wavelength)=355 nm, λem (fluorescence wavelength)=460 nm) when reacted at 37° C.

cathepsin B = cathepsin B (Homo sapiens, UniProt P07858); experiment: Measurement of cathepsin B inhibitory activity
Method: (ii) Measurement of Cathepsin B Inhibitory Activity
10 μL of Synthesized substrate (carbobenzoxy-L-arginyl-L-arginine-4-methyl-chromanyl-7-amide or carbobenzoxy-L-phenylalanyl-L-arginine-4-methyl-chromanyl-7-amide) solution of several concentrations, 10 μL of cysteine protease inhibitor solution of several concentrations, 70 μL of cathepsin B enzyme reaction buffer (mixture of 400 mmol/L in acetic acid, 4 mmol/L EDTA, 8 mmol/L DDT to adjust to pH 5.5) and 10 μL of cathepsin B enzyme solution were mixed and the increase of fluorescence intensity was measured (λex (excitation wavelength)=355 nm, λem (fluorescence wavelength)=460 nm) when reacted at 37° C.

cathepsin K = molecular target: T1, cathepsin K (Homo sapiens, UniProt P43235); experiment: Measurement of cathepsin K inhibitory activity; conditions: Dixon plot, fluorogenic substrate, pH 5.5, 37° C.
T1 sequence (P43235 115-329): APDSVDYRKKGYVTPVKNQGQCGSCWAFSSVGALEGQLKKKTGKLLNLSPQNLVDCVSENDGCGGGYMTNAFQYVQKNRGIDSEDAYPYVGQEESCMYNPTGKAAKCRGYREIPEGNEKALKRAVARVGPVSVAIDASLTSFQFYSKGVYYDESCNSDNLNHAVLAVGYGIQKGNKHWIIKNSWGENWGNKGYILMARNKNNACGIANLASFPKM
Method: (i) Measurement of Cathepsin K Inhibitory Activity
65 μL of Cathepsin K enzyme reaction buffer (50 mmol/L of 2-(N-morpholino)ethanesulfonate, 2 mmol/L of ethylenediamine tetraacetate (EDTA) and 4 mmol/L of dithiothreitol (DTT) were mixed to adjust to pH 5.5), 5 μL of cysteine protease inhibitor solution of several concentrations, 20 μL of synthesized substrate (t-butyloxycarbonyl-L-alanyl-glycyl-L-prolyl-L-arginine-4-methyl-chromanyl-7-amide) solution of several concentrations and 10 μL of cathepsin K enzyme solution were mixed and the increase of fluorescence intensity when reacted at 37° C. was measured (λex (excitation wavelength)=355 nm, λem (fluorescence wavelength)=460 nm). As to the substrate and the compound of the present invention, enzyme reactions were carried out in combination of several appropriate concentrations and Dixon plotting was prepared, to define the absolute value of X-coordinate of the intersection point of the graph as Ki value.

cathepsin S = cathepsin S (Homo sapiens, UniProt P25774); experiment: Measurement of cathepsin S inhibitory activity
Chain of cathepsin S (P25774 115-331, species assumed): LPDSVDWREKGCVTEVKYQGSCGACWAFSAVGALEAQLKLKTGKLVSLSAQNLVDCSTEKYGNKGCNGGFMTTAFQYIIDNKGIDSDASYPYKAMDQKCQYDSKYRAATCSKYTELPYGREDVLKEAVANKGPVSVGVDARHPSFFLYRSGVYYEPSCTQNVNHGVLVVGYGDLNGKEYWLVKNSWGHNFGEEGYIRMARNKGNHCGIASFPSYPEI
Method: (iii) Measurement of Cathepsin S Inhibitory Activity
10 μL of synthesized substrate (carbobenzoxy-L-leucyl-L-leucyl-L-arguinine-4-methyl-chromanyl-7-amide) solution and 5 μL of cysteine protease inhibitor solution of several concentrations, 75 μL of cathepsin S enzyme reaction buffer (100 mmol/L of sodium phosphate, 2 mmol/L of EDTA, 2 mmol/L of DTT were mixed to adjust to pH 6.5) and 10 μL of cathepsin S enzyme solution were mixed and the increase of fluorescence intensity was measured (λex (excitation wavelength)=355 nm, λem (fluorescence wavelength)=460 nm) when reacted at 37° C.

Chain of cathepsin L (P07711 114-333, species assumed): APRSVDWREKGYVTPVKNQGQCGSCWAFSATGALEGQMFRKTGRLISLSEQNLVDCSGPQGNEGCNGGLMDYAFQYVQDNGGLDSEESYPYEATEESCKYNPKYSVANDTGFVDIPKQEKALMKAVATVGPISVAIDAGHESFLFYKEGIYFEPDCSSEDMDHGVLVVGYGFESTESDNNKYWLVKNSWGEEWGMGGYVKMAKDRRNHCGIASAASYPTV

inhibition at 1 µM (cathepsin L): 92%
Structure (SMILES): CC(C)C[C@H](NC(=O)OCc1ccccc1)C(=O)N[C@@H](CC(C)C)C(=O)c1nn(CC2CCC2)c(=O)o1 [1 (21), (2S)-N-[(2S)-1-(3-cyclobutylmethyl-2-oxo-1,3,4-oxadiazolin-5-yl)-4-methyl-1-oxo-2-pentyl]-2-benzyloxycarbonylamino-4-methylpentanamide]

inhibition at 1 µM (cathepsin B): 100%
Structure (SMILES): CC(C)C[C@H](NC(=O)[C@@H]1CCCC[C@@H]1NC(=O)c1ccccc1)C(=O)c1nnc(SCc2ccccc2)o1 [3 (5), 1-[(1R,2S)-2-benzoylaminocyclohexyl]-N-[(2S)-1-(5-benzylthio-1,3,4-oxadiazol-2-yl)-4-methyl-1-oxo-2-pentyl]carboxamide]

Ki (cathepsin K): 1.3 nM
Structure (SMILES): CC(C)C[C@H](NC(=O)OCc1ccccc1)C(=O)N[C@@H](CC(C)C)C(=O)c1nnc(SC(C)C)o1 [example 3]

inhibition at 1 µM (cathepsin S): 100%
Structure (SMILES): CSc1nnc(C(=O)[C@H](CCc2ccccc2)NC(=O)[C@@H]2CCCC[C@@H]2NC(=O)c2ccccc2)o1 [3 (7), 1-[(1R,2S)-2-benzoylaminocyclohexyl]-N-[(2S)-1-(5-methylthio-1,3,4-oxadiazol-2-yl)-1-oxo-4-phenyl-2-butyl]carboxamide]
